From patent US20030212014A1 (priority 2000, published 2003) come the findings set out here.

In the assay the test system is HUVEC. As to the kind of experiment: Apoptosis in HUVEC incubated with 2-bromopalmitate. The format is cell-based, human. The note with it: inhibition of free fatty acid oxidation. The procedure:
To test this notion, experiments were performed in HUVEC incubated with 2-bromopalmitate, an inhibitor of CPT1 which inhibits free fatty oxidation, or a higher concentration of free fatty acids (0.5 mM vs. 0.1 mM palmitate).

The structures appear in SMILES notation.

`CCCCCCCCCCCCCCC(Br)C(=O)O` (stereo not shown) [2-bromopalmitate]: the apoptosis result is reported as “promotes apoptosis”.
